Test system: Aspergillus niger
Assay: Bacteria inhibiting effect, dilution-plate method (colony count)
Type: cell-based
Conditions: 27° C., 72 h
Experimental: • 1. […] Dilution-plate method The preservatives were dissolved with sterilized water and diluted to the concentrations in Table 1. 1 ml of each sample was added into a sterilized Petri dish, and then 1 ml bacterial suspension was added into each dish. The sample and the bacterial suspension were well mixed in the dish and 20 ml sterilized culture medium was added into the dish at ≦45° C., such that the final concentration of the preservatives is as described in Table 1. After solidification, the dish was incubated in a constant temperature incubator at 27° C. for 72 h, and the number of the colony was then counted.

[1] = final concentration of the preservative 0.01 % (extract calculated as benzoic acid)
[2] = final concentration of the preservative 0.02 % (extract calculated as benzoic acid)
[3] = final concentration of the preservative 0.04 % (extract calculated as benzoic acid)

Compound	Inhibition [1]	colony number [1]	Inhibition [2]	colony number [2]	Inhibition [3]	colony number [3]
C/C=C/C=C/C(=O)O [Sorbic acid]	0%	50 cfu/dish	38%	33 cfu/dish		
O=C(O)c1ccccc1 [Benzoic acid]	0%	49 cfu/dish	40%	32 cfu/dish	62%	20 cfu/dish

Source: patent publication US20130296432A1, “BENZOIC ACID-ENRICHED PLANT EXTRACTS AND USE THEREOF” (EPC (BEIJING) NATURAL PRODUCTS CO., LTD., priority 2012, published 2013)
